Target: T1, Mushroom tyrosinase (Agaricus bisporus, UniProt C7FF04)
Test: Mushroom tyrosinase inhibitory assay (spectrophotometric, L-tyrosine substrate)
Type: biochemical
Conditions: qualitative statement; comparison with positive control kojic acid where stated
Experimental: The compounds were firstly dissolved in DMSO at a concentration of 1.0 mg/mL and then diluted to different concentrations with DMSO. […] The reaction mixtures (3.0 mL) were vortexed and the initial absorbance at 492 nm was measured. After incubation for 20 min at 37 °C, the final absorbance at the same wavelength was taken. […] B1 is the absorbance at 492 nm of test sample at 0 min, B2 is the absorbance at 492 nm of test sample at 20 min.

T1 sequence (G1K3P4 entry or part of it): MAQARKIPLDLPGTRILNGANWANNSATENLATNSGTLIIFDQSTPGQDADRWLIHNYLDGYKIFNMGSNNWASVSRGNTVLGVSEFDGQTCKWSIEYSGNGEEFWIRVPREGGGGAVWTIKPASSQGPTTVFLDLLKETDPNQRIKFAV
T1 sequence (C7FF04 1-392): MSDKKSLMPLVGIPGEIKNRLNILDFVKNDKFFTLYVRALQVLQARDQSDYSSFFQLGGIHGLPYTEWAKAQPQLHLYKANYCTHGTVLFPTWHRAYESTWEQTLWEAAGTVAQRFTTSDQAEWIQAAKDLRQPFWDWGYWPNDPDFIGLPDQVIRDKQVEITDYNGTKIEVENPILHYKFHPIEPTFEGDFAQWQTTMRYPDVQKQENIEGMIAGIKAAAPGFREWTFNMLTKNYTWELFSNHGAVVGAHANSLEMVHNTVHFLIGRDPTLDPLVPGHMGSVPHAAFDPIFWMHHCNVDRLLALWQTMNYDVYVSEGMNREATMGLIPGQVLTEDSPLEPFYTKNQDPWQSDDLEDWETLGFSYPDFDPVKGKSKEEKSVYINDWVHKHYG

SMILES	Mushroom tyrosinase inhibitory activity, result in words
CC(C)=CCc1c(O)ccc(C(=O)/C=C/c2ccc(O)cc2O)c1O [Morachalcone A (4), morachalcone A]	much stronger
C=C(C)C(=O)Cc1c(-c2ccc(O)cc2O)oc2c3c(cc(O)c2c1=O)OC(C)(C)C=C3 [Morusone (1), 2-(2,4-dihydroxyphenyl)-5-hydroxy-8,8-dimethyl-3-(3-methyl-2-oxo-but-3-enyl)-8H-pyrano[2,3-f]chromen-4-one]	weak
O=C(/C=C/c1ccc(O)cc1O)c1ccc(O)cc1O [2,4,2′,4′-Tetrahydroxychalcone (3), 2,4,2′,4′-Tetrahydroxychalcone]	much stronger
O=C1CC(c2ccc(O)cc2O)Oc2cc(O)cc(O)c21 (stereo not shown) [Steppogenin (2), steppogenin]	much stronger
Oc1cc(O)cc(/C=C/c2ccc(O)cc2O)c1 [Oxyresveratrol (5), oxyresveratrol]	much stronger
Oc1cc(O)cc(-c2cc3ccc(O)cc3o2)c1 [Moracin M (14), moracin M]	much stronger

Target: T1, Mushroom tyrosinase
Test: not given
Design: method as in PMID 26616992
Conditions: single resorcinol derivatives, weak activity; read-out: Tyrosinase inhibitory activity IC50; cited from earlier work

SMILES	IC50
CC(=O)c1ccc(O)cc1O [2,4-dihydroxyacetophenone]	> 200 µM
